The results in this text go back to the NIST ThermoML archive (doi:10.1016/j.jct.2019.06.009).

Each structure is given as a SMILES string. ± gives the expanded uncertainty stated by the source.

For data set [1] the following is noted: Crystal; DSC.
A short description of data set [2]: Molar enthalpy of transition or fusion. To be noted: Crystal; DSC.

`C=NCC#N` [methyleneaminoacetonitrile]: the Triple point temperature in data set [1] is listed as 400.19 ± 2.1 K. Also, the “Molar enthalpy of transition or fusion” value in data set [2] turned out to be 2.53 ± 0.239 kcal/mol.
